# Data published in patent US12590062B2, “PD-1/PD-L1 inhibitors” (Gilead Sciences, Inc., priority 2017, dated 2026).
# Key:
# [1] = molecular target: PD-1/PD-L1 (Homo sapiens, UniProt Q9NZQ7); assay: PD-1/PD-L1 biochemical protein-protein interaction assay (ALPHA); assay type: binding; settings: 0.3 nM His tagged PD-L1, 2.5 nM biotinylated Fc-PD-1, 60 minutes at 25° C., read-out: IC50 PD-L1-PD-1 Alpha IC50-mono PD-L1-fcP-D1
# Procedure, shortened: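 Extracellular-domain binding of His-tagged PD-L1 (0.3 nM final) to biotinylated Fc-PD-1 (2.5 nM final) was measured by ALPHA in 25 mM Hepes pH 7.4, 150 mM NaCl, 3.4 mM EDTA, 0.005% Tween 20, 0.01% BSA. After 60 min at 25° C, anti-His acceptor and streptavidin donor beads were added; IC50 from four-parameter fits.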
# [2] = molecular target: T1, interaction between the recombinant extracellular domain (ECD) of PD-1 and native cell-bound PD-L1 (Homo sapiens, UniProt Q9NZQ7); assay: CHO/PD-L1 cell capture assay; assay type: cell-based; settings: CHO cells overexpressing PD-L1, pre-incubated 1 hr with compound, captured on biotinylated Fc-PD-1 coated plates, 75 min at room temperature
# T1 construct: expressed in transfected cells
# Procedure, shortened: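 CHO cells stably overexpressing PD-L1 were pre-incubated 1 hr with compound, then captured 75 min at room temperature on biotinylated Fc-PD-1 ECD bound to streptavidin plates. After glutaraldehyde/Draq5 fixation-staining, captured cells were counted by high-content microscopy; EC50 from four-parameter dose-response fits.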
# [3] = molecular target: T2, PD-1/PD-L1 interaction (Homo sapiens, UniProt Q9NZQ7); assay: PD-1/PD-L1 NFAT reporter co-culture assay; assay type: cell-based; settings: Jurkat PD-1 NFAT-luciferase cells co-cultured with aAPC-PD-L1 CHO cells, 6 hrs at 37° C.; read-out: EC50 NFAT Luciferase
# T2 construct: expressed in transfected cells; host or cells: CHO cells (aAPC-PD-L1) co-cultured with Jurkat cells overexpressing PD-1 and an NFAT-luciferase reporter
# Procedure, shortened: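 Compounds are scored by restoration of NFAT-luciferase signal in PD-1-expressing Jurkat cells cultured 6 h at 37 °C on CHO cells presenting anti-CD3 and PD-L1; EC50 values derive from four-parameter curve fitting.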
# Sequence of PD-1/PD-L1 (Q9NZQ7 19-238 limits assumed): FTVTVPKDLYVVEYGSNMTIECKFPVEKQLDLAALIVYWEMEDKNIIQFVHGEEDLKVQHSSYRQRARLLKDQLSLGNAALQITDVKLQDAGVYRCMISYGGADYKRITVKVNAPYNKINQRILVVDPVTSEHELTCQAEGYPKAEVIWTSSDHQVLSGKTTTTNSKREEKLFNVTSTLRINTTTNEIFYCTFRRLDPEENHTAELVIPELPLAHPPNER
# T2 sequence (Q9NZQ7 19-290): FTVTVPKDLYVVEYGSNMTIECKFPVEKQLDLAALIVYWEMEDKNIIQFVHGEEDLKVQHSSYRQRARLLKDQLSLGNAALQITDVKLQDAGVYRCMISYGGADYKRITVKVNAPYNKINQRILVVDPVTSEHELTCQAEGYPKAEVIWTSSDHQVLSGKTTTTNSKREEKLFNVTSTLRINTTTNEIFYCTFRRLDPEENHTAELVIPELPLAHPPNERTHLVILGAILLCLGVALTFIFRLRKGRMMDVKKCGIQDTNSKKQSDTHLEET
# T1 sequence (Q9NZQ7 19-290): as above
SMILES,IC50 [1] [nM],EC50 [2] [nM],EC50 [3] [nM]
"Cc1c(COc2nc(OCc3cncc(C#N)c3)c(CNCCO)cc2Cl)cccc1-c1cccc(COc2nc(OCc3cncc(C#N)c3)c(CNCCO)cc2Cl)c1C [Example 35, 5,5′-((((((2,2′-dimethyl-[1,1′-biphenyl]-3,3′-diyl)bis(methylene))bis(oxy))bis(5-chloro-3-(((2-hydroxyethyl)amino)methyl)pyridine-6,2-diyl))bis(oxy))bis(methylene))dinicotinonitrile]",15.6,264,296
"COc1nc(O[C@H]2CCc3c(-c4cccc5c4CC[C@@H]5Oc4nc(OC)c(CN[C@@](C)(CO)C(=O)O)cc4Br)cccc32)c(Br)cc1CN[C@@](C)(CO)C(=O)O [Example 5, (2S,2′S)-2,2′-((((((1S,1′S)-2,2′,3,3′-tetrahydro-1H,1′H-[4,4′-biindene]-1,1′-diyl)bis(oxy))bis(5-bromo-2-methoxypyridine-6,3-diyl))bis(methylene))bis(azanediyl))bis(3-hydroxy-2-methylpropanoic acid)]",0.1,38.1,29
"COc1nc(OCc2cccc(-c3cccc(COc4ccc(CN[C@@](C)(CO)C(=O)O)c(OC)n4)c3C)c2C)ccc1CN[C@@](C)(CO)C(=O)O [Example 61, (2S,2′S)-2,2′-((((((2,2′-dimethyl-[1,1′-biphenyl]-3,3′-diyl)bis(methylene))bis(oxy))bis(2-methoxypyridine-6,3-diyl))bis(methylene))bis(azanediyl))bis(3-hydroxy-2-methylpropanoic acid)]",0.7,200,6780
"COc1nc(OCc2cccc(-c3cccc(COc4nc(OC)c(CNC[C@@H](O)CC(=O)O)cc4I)c3C)c2C)c(I)cc1CNC[C@@H](O)CC(=O)O [Example 241, (3S,3′S)-4,4′-((((((2,2′-dimethyl-[1,1′-biphenyl]-3,3′-diyl)bis(methylene))bis(oxy))bis(5-iodo-2-methoxypyridine-6,3-diyl))bis(methylene))bis(azanediyl))bis(3-hydroxybutanoic acid)]",0.6,166,275
"COc1nc(OCc2cccc(-c3cccc(COc4nc(OC)c(CNC[C@@H](O)CC(=O)O)cc4Cl)c3C)c2C)c(Cl)cc1CNC[C@@H](O)CC(=O)O [Example 29, (3S,3′S)-4,4′-((((((2,2′-dimethyl-[1,1′-biphenyl]-3,3′-diyl)bis(methylene))bis(oxy))bis(5-chloro-2-methoxypyridine-6,3-diyl))bis(methylene))bis(azanediyl))bis(3-hydroxybutanoic acid)]",0.8,218,244
"COc1nc(OCc2cccc(-c3cccc(COc4nc(OC)c(CNC[C@@H](O)CC(=O)O)cc4C#N)c3C)c2C)c(C#N)cc1CNC[C@@H](O)CC(=O)O [Example 243, (3S,3′S)-4,4′-((((((2,2′-dimethyl-[1,1′-biphenyl]-3,3′-diyl)bis(methylene))bis(oxy))bis(5-cyano-2-methoxypyridine-6,3-diyl))bis(methylene))bis(azanediyl))bis(3-hydroxybutanoic acid)]",0.2,90.6,393
"Cc1c(COc2ccc(CNC[C@@H](O)CC(=O)O)c(OCc3cncc(C#N)c3)n2)cccc1-c1cccc(COc2ccc(CNC[C@@H](O)CC(=O)O)c(OCc3cncc(C#N)c3)n2)c1C [Example 242, (3S,3′S)-4,4′-((((((2,2′-dimethyl-[1,1′-biphenyl]-3,3′-diyl)bis(methylene))bis(oxy))bis(2-((5-cyanopyridin-3-yl)methoxy)pyridine-6,3-diyl))bis(methylene))bis(azanediyl))bis(3-hydroxybutanoic acid)]",0.2,129,288
"Cc1c(COc2ccc(CNC[C@@H](O)CC(=O)O)c(OCc3cncc(C#N)c3)c2)cccc1-c1cccc(COc2ccc(CNC[C@@H](O)CC(=O)O)c(OCc3cncc(C#N)c3)c2)c1C [Example 248, (3S,3′S)-4,4′-((((((2,2′-dimethyl-[1,1′-biphenyl]-3,3′-diyl)bis(methylene))bis(oxy))bis(2-((5-cyanopyridin-3-yl)methoxy)-4,1-phenylene))bis(methylene))bis(azanediyl))bis(3-hydroxybutanoic acid)]",0.2,200,540
"COc1nc(OC2CCc3c(-c4cccc5c4CCC5Oc4nc(OC)c(CNC[C@@H](O)CC(=O)O)cc4Cl)cccc32)c(Cl)cc1CNC[C@@H](O)CC(=O)O (stereo partly drawn) [Example 9, (3S,3′S)-4,4′-(((((2,2′,3,3′-tetrahydro-1H,1′H-[4,4′-biindene]-1,1′-diyl)bis(oxy))bis(5-chloro-2-methoxypyridine-6,3-diyl))bis(methylene))bis(azanediyl))bis(3-hydroxybutanoic acid)]",0.5,102,340
"Cc1c(COc2nc(OCc3cncc(C#N)c3)c(CNC[C@@H](O)CC(=O)O)cc2Cl)cccc1-c1cccc(COc2nc(OCc3cncc(C#N)c3)c(CNC[C@@H](O)CC(=O)O)cc2Cl)c1C [Example 34, (3S,3′S)-4,4′-((((((2,2′-dimethyl-[1,1′-biphenyl]-3,3′-diyl)bis(methylene))bis(oxy))bis(5-chloro-2-((5-cyanopyridin-3-yl)methoxy)pyridine-6,3-diyl))bis(methylene))bis(azanediyl))bis(3-hydroxybutanoic acid)]",0.4,321,195
"COc1cc(OCc2cccc(-c3cccc(COc4cc(OC)c(CNC[C@@H](O)CC(=O)O)c(OCc5cncc(C#N)c5)c4)c3C)c2C)cc(OCc2cncc(C#N)c2)c1CNC[C@@H](O)CC(=O)O [Example 245, (3S,3′S)-4,4′-((((((2,2′-dimethyl-[1,1′-biphenyl]-3,3′-diyl)bis(methylene))bis(oxy))bis(2-((5-cyanopyridin-3-yl)methoxy)-6-methoxy-4,1-phenylene))bis(methylene))bis(azanediyl))bis(3-hydroxybutanoic acid)]",0.6,308,3440
"CCCc1cc(CNCCO)c(OCc2cncc(C#N)c2)cc1OCc1cccc(-c2cccc(COc3cc(OCc4cncc(C#N)c4)c(CNCCO)cc3CCC)c2C)c1C [Example 39, 5,5′-((((((2,2′-dimethyl-[1,1′-biphenyl]-3,3′-diyl)bis(methylene))bis(oxy))bis(6-(((2-hydroxyethyl)amino)methyl)-4-propyl-3,1-phenylene))bis(oxy))bis(methylene))dinicotinonitrile]",167,267,≥ 50000
"COc1nc(OCc2cccc(-c3cccc(COc4nc(OC)c(CNC[C@H](O)C(=O)O)cc4Cl)c3C)c2C)c(Cl)cc1CNC[C@H](O)C(=O)O [Example 166, (2S,2′S)-3,3′-((((((2,2′-dimethyl-[1,1′-biphenyl]-3,3′-diyl)bis(methylene))bis(oxy))bis(5-chloro-2-methoxypyridine-6,3-diyl))bis(methylene))bis(azanediyl))bis(2-hydroxypropanoic acid)]",2,41.6,139
